Laboratory results reported in patent publication US20080293699A1, “Inhibitors of thapsigargin-induced cell death” (priority 2007, published 2008).
Entries after “also recorded” stand apart in the source; their conditions may differ.

What was measured:
Format in all cases: cell-based, rat
CSM14.1 cells [1] = experiment: Primary HTS assay: ATP content (ATPlite) of undifferentiated CSM14.1 cells challenged with thapsigargin; details: 100 μM Salubrinal, 15 μM TG, undifferentiated CSM14.1, ATP
Procedure, shortened: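 Undifferentiated CSM14.1 cells, 3,000/well, cultured overnight at 32 °C, then test compounds at ~15 μg/mL final (1% DMSO) added. Thapsigargin ~15 μM final given after 2 h; ATPlite luminescence read after 24 h as survival surrogate, with 100 μM Salubrinal as maximum and DMSO as minimum.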

[2] = test system: differentiated CSM14.1 cells; experiment: ATP content assay, thapsigargin-treated differentiated CSM14.1 cells; details: compound 25 μM with 10 μM thapsigargin, Salubrinal 100 μM
Protocol: Of the 26 compounds shown in Table 9, 16 were subsequently confirmed to protect differentiated CSM14.1 cells from TG-induced cell death. For these assays, CSM14.1 cells were differentiated by culture in 2% FBS for 7 days at non-permissive temperature of 39° C. […] CSM14.1 cells were plated at 1,500 cells per well in 96-well plates, and cultured overnight at 32° C. (permissive temperature; FIG. 14, left) or at 39° C. (non-permissive temperature, FIG. 14, right) for 7 days. […] ATP content was measured, and data were expressed as a percentage of control cells treated only with 1% DMSO (mean ±SD; n=3). Two percent FBS was used during differentiation, but all assays were performed in 10% FBS.
For PC12, cells were stimulated with 20 ng/ml NGF for five days; for C17.2, cells were stimulated with serum reduction, and 1% N2 incubation for three days; for CSM14.1, cells were cultured at 39° C. for 5-7 days.
CSM14.1 cells were plated at 1,500 cells per well in 96-well plates and cultured at 39° C. (non-permissive temperature) for 7 days. […] ATP content was measured and data were expressed as a percentage of control cells treated with only 1% DMSO.

CSM 14.1 cells = experiment: MTS assay of thapsigargin-induced death of CSM 14.1 cells; details: salubrinal two hours before 7.5 mM thapsigargin, 18 hours
Protocol: CSM 14.1 cells were plated at a density of 3×10^3 cells per well in 96-well plates and incubated overnight. The indicated concentration of salubrinal was pre incubated with cells for two hours, followed by […] thapsigargin treatment. 18 hours later, cell death rates were measured by the MTS assay. For the MTS assay, the CellTiter 960 Aqueous Non-radioactive Cell Proliferation Assay kit (Promega) was used. The reaction-ready solution was made according to the manufacturer's protocol, and each treated well of the 96-well plate was incubated with 20 μl of the reaction-ready solution. The plates were incubated humidified cell incubator at 37° C. with 5% CO2 for two hours, and the absorbance of each well was read by an ELISA plate reader at 490 nm wavelength. To determine the background level of absorbance, the same volume of culture media (DMEM without cells) was incubated with MTS solution. The background value was subtracted from the value of each well. Background values from the control treatment (no TG, no Sal) wells were set as 100% survival, and the experimental wells' values were evaluated as the percentage of the control value.

CSM14.1 cells [3] = experiment: Tunicamycin-induced cell death of CSM14.1 cells; details: 100 μm salubrinal; stated in the description of FIG. 13 (tunicamycin, annexin V flow cytometry)
Protocol: CSM 14.1 cells were plated at a density of 3×10^3 cells/well in 96-well plates and incubated overnight. Cells were pre-incubated with 25 μM of each compound or 100 μM salubrinal for two hours, followed by […] tunicamycin treatment. 72 hours later, cell death rates were measured by flow cytometry analysis. Annexin V-negative population was considered as survivors. In FIG. 13, the white column represents 0.5% DMSO control showing 24% of survival, and the gray column 100 μM salubrinal. Black columns are data from each compound (25 μM) (compound numbers refer to the compounds in Table 9).
For the experiments shown in FIG. 18, undifferentiated CSM 14.1 cells were plated at 3,000 cells per well in 96-well plates (for the ATP assay) or at 1×10^4 cells per well in 24-well plates (for flow cytometry). The next day, cells were treated with DMSO (0.5%) or hit compounds 25 μM of a compound with 0.5% DMSO final concentration) for two hours, followed by treatment with various cell death-inducing reagents, including 15 μM Thapsigargin (TG) for 24 hrs, 10 μg/mL tunicamycin (TU) for 72 hrs, 2.5 μM staurosporine (STS) for 24 hrs, 50 μM VP16 for 48 hrs, or 30 ng/mL TNF plus 10 μg/mL cyclohexamide (CHX) for 24 hrs. Cellular ATP content was measured for staurosporine samples and TNF/CHX samples, normalizing data relative to cells treated with DMSO alone (the control) and presenting as a percentage of control. For measuring cell death resulting from treatment with tunicamycin and VP16, flow cytometry was used. All assays were performed in triplicate (mean ±SD).

## O=C(/C=C/c1ccccc1)NC(NC(=S)Nc1cccc2cccnc12)C(Cl)(Cl)Cl (centres unmarked) [Salubrinal, reference compound]
CSM14.1 cells [1]
  Protection against TG-induced cell death by Salubrinal: significantly protected; also recorded: protects
CSM14.1 cells [1]; listed as Sal
  Protection against TG-induced cell death by Salubrinal: protects
[2]
  Protection of differentiated CSM14.1 cells from thapsigargin-induced death: protects
CSM 14.1 cells
  Inhibition of thapsigargin-induced cell death, MTS assay: less efficiently than our hit compounds
CSM14.1 cells [3]
  Inhibition of tunicamycin-induced cell death: 75%
